Values quoted from earlier work in patent US10028900B2, “Photostable sunscreen composition for topical application” (KANCOR INGREDIENTS LTD, priority 2014, dated 2018).

Settings: oil / water

Solubility (in words)	SMILES
oil soluble and water insoluble	CCCCC(CC)COC(=O)/C=C/c1ccc(OC)cc1 (centres unmarked) [Octyl-methoxy cinnamate, 2-ethylhexyl (2E)-3-(4-methoxyphenyl) prop-2-enoate]
oil soluble and water insoluble	COc1ccc(C(=O)CC(=O)c2ccc(C(C)(C)C)cc2)cc1 [Avobenzone, 1-(4-methoxyphenyl)-3-(4-tert-butylphenyl)propane-1,3-dione]
